We go through six substances from publication PMC11395612, “DPP-IV Inhibitory Peptide against In Vitro Gastrointestinal Digestion Derived from Goat’s Milk Protein and Its Activity Enhancement via Amino Acid Substitution” (Foods, 2024).

Series [1] addresses T1, DPP-IV (Homo sapiens, UniProt P27487).
T1 construct: host or cells: Caco-2 cells
Format: cell-based.

The next series deals with Caco-2 cells. To be noted: 4 h.
Series [2] relates to DPP-IV. To be noted: MBPDB database assignment, cited from earlier work. An excerpt: Among them, the DPP-IV inhibitory peptide fragment derived from milk serum albumin may be rapidly degraded in vivo due to low structural stability, leading to loss of activity.
Series [3] in a line: In vitro simulated gastrointestinal digestion of goat milk. Format: in vitro ADME. Particulars: in vitro gastric (pepsin, pH 2.0, 60 min) then intestinal digestion (pH 7.0), 30 min, LC-MS/MS. The protocol: Goat milk was subjected to simulated gastrointestinal digestion according to the in vitro digestion protocol described by Xue et al.. Artificial gastric fluid from goat milk was mixed in a 1:1 ratio, followed by the addition of 120 μL CaCl2(H2O)2. The pH of the resulting solution was adjusted to 2.0 using HCl. The solution was then divided into centrifuge tubes, with each tube containing 20 mL of the solution. The tubes were placed in a water bath (FYDKH3, Shanghai Hengyi Scientific Instrument Co., Shanghai, China) and subjected to shock for five min for pre-heating. Subsequently, pepsin was added and dissolved in simulated gastric fluid (SGF). After preheating, 1 mL enzyme solution was added to each tube to initiate the in vitro digestion process. Digestion time intervals were established at 0, 10, 30, 60, 90, and 120 min. Additionally, the pH of the digestion solution was adjusted to 8.0, using NaOH solution to deactivate the enzyme following digestion. After gastric digestion for 60 min followed by enzyme inactivation, an artificial intestinal solution was added at a ratio of 1:1. The subsequent experimental procedures were identical to those previously described. The pH of the solution was adjusted to 7.0. Digestion time intervals were set at 0, 0.5, 5, 10, 30, and 60 min. […]
LC-MS/MS was determined as described by Sun et al.. […]

Series [4] has as its system DPP-IV. Particulars: ref [32], cited from earlier work. An excerpt: In the process of in vitro digestion, potential active peptide fragments harboring in food proteins may be degraded by digestive enzymes, but the peptide fragment selected in this study still has DPP-IV inhibitory activity after digestion, which is a digestion-resistant peptide fragment with a molecular weight of about 1kDa. Some reported that DPP-IV inhibitory peptides tend to be active peptides with 2–8 amino acid residues and a molecular weight of less than 1 kDa. The DPP-IV inhibition and metabolic stability of casein-derived peptide Val-Pro-Tyr-Pro-Gln (VPYPQ) and its fragments, an ...

Setting [5] is: ref [23] in Table 1 for VGINYWLAHK and ILDKVGINYWLAHK

“Also recorded” adds a separate entry of the source. Read-outs that look alike come from different tables or passages of the source.

T1 sequence (P27487 whole entry): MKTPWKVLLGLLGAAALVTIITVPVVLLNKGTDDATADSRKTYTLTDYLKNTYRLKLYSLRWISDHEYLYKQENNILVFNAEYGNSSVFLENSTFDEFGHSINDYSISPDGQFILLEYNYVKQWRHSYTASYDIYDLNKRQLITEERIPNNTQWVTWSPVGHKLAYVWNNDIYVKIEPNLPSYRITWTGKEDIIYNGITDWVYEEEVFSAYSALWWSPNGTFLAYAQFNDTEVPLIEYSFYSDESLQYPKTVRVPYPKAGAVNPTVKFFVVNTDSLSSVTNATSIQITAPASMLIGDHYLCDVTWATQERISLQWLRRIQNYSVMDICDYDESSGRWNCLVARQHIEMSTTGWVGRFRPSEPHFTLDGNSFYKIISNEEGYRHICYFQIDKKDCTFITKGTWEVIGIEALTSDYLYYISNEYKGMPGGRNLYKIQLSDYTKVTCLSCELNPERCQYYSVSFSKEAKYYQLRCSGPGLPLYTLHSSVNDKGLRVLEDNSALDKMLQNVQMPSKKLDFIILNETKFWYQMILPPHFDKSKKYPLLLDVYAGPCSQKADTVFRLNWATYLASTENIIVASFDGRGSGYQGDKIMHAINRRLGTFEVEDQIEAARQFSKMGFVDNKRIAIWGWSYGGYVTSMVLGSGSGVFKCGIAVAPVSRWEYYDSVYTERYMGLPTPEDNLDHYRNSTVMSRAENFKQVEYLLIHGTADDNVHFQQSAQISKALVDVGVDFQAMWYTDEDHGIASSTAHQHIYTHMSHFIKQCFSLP

As to H-IIDKVGINY-OH [II], the DPP-IV inhibition rate at DPP-IV [1] is on record as 79.20 ± 2.20%. Also, the “DPP-IV inhibitory effect, in words” value at DPP-IV [1] was “significant enhancement of DPP-IV inhibitory activity; also recorded: strongest; also recorded: increased the hydrophobic force and inhibitory activity”. In addition, the “cellular activity (cell viability)” value in the series with Caco-2 cells (0.5 mg/mL) is listed as 90.34 ± 2.08%; with Caco-2 cells (1 mg/mL), 85.51 ± 3.52%.

In turn, H-ILDKVGINY-OH [IL] gave a DPP-IV inhibition rate at DPP-IV [1] of 73.44 ± 2.23%. The “DPP-IV inhibitory activity, in words” value in the series with DPP-IV [2] (ref [23] in Table 1 for […] and […]) is reported as “displayed DPP-IV inhibitory activity”. Also, the “resistance to digestion / activity after digestion, in words” value is “high in content and resistance to digestion” in series [3]; “retaining its activity following digestion” in series [3] (listed as ILDKVGINY). The “cellular activity (cell viability)” value in the series with Caco-2 cells (0.5 mg/mL) was determined as 91.91 ± 5.763%; in the series on Caco-2 cells (1 mg/mL), 86 ± 3.911%.

Turning to H-IPDKVGINY-OH [IP], on DPP-IV [1], the DPP-IV inhibition rate is reported as 60.37 ± 3.04% and the “DPP-IV inhibitory effect, in words” value was “weakest; also recorded: lower inhibition rate”. Besides, in the series on Caco-2 cells (0.5 mg/mL), the “cellular activity (cell viability)” value worked out at 91.88 ± 5.385%. The “cellular activity (cell viability)” value in the series with Caco-2 cells (1 mg/mL) turned out to be 84.46 ± 2.928%.

Consider ILDKVGINYWLAHK, for which the “DPP-IV inhibitory activity, in words” value with DPP-IV [2] (setting [5]) was “displayed DPP-IV inhibitory activity”.

On to VGINYWLAHK, for which, in the series with DPP-IV [2] (setting [5]), the “DPP-IV inhibitory activity, in words” value is “displayed DPP-IV inhibitory activity”.

A word on the IC50: it is the concentration at which inhibition is half-maximal. As to “Val-Pro-Tyr-Pro-Gln [VPYPQ, casein-derived peptide]”, the “DPP-IV inhibitory activity, in words” value in the series on DPP-IV [4] (among VPYPQ and its fragments) was “strongest DPP-IV inhibitory peptide”. Moreover, in the series on DPP-IV [4] (casein-derived peptide, read-out: IC50 of DPP-IV inhibition), the IC50 is 41.5 µM.
